Results published in ChEMBL document CHEMBL4428125, “8-Substituted 1,3-dimethyltetrahydropyrazino[2,1-f]purinediones: Water-soluble adenosine receptor antagonists and monoamine oxidase B inhibitors” (Bioorg Med Chem, 2016).

Legend:
[1] = biological target: T1, Adenosine receptor A3 (Homo sapiens) (UniProt P0DMS8); experiment: Displacement of [3H]PSB-11 from human A3 receptor expressed in CHO cell membrane at 10 uM by liquid scintillation counting method relative to control relative to control; type: cell membranes
T1 sequence (whole entry): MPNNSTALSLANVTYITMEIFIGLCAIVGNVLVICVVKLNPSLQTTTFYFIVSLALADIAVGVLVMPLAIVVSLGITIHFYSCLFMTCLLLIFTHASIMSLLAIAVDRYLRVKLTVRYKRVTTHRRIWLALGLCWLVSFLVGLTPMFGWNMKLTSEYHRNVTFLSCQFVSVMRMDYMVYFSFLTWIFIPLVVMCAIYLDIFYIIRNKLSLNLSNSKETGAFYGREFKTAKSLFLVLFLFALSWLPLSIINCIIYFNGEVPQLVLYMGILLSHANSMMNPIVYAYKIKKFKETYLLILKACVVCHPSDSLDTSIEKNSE

[2] = biological target: T2, Adenosine receptor A1 (Rattus norvegicus) (UniProt P25099); experiment: Displacement of [3H]CCPA from A1 receptor in rat brain cortex membranes at 1.5 uM by liquid scintillation counting method; type: cell membranes
T2 sequence (whole entry): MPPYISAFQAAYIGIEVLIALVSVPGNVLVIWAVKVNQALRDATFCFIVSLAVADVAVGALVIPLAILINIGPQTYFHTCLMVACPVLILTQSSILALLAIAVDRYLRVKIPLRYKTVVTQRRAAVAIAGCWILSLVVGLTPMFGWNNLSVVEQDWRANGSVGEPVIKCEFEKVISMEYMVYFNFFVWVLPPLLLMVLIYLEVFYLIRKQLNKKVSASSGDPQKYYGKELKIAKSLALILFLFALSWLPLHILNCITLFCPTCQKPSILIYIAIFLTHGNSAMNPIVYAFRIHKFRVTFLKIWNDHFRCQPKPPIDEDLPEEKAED

Adenosine receptor A1 = biological target: T3, Adenosine receptor A1 (Rattus norvegicus, UniProt P25099); experiment: Displacement of [3H]CCPA from A1 receptor in rat brain cortex membranes by liquid scintillation counting method; type: cell membranes
T3 sequence (P25099 whole entry): T2 sequence (whole entry)

Adenosine receptor A2b = biological target: T4, Adenosine receptor A2b (Homo sapiens, UniProt P29275); experiment: Displacement of [3H]PSB-603 from human A2B receptor expressed in CHO cell membrane; type: cell membranes
T4 sequence (P29275 whole entry): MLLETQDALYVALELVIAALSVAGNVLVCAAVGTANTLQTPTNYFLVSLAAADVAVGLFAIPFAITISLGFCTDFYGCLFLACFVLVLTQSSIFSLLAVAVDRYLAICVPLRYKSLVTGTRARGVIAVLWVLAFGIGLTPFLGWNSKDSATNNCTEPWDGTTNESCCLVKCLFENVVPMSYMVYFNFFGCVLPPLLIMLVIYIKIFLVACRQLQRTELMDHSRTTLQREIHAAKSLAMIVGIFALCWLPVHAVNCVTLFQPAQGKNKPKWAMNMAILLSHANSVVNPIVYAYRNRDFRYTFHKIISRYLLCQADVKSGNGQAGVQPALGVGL

Adenosine receptor A2a = Adenosine receptor A2a (Rattus norvegicus, UniProt P30543); experiment: Displacement of [3H]MSX from A2A receptor in rat brain striatum membranes measured after 30 mins by liquid scintillation counting method; type: cell membranes
[3] = biological target: T5, Amine oxidase [flavin-containing] B (Homo sapiens, UniProt P27338); experiment: Inhibition of recombinant human MAO-B expressed in baculovirus infected BTI insect cells at 10 uM preincubated for 30 mins followed by addition of p-tyramine as substrate measured over 45 mins by Amplex Red MAO assay relative to control; settings: 0.75 h
T5 sequence (P27338 whole entry): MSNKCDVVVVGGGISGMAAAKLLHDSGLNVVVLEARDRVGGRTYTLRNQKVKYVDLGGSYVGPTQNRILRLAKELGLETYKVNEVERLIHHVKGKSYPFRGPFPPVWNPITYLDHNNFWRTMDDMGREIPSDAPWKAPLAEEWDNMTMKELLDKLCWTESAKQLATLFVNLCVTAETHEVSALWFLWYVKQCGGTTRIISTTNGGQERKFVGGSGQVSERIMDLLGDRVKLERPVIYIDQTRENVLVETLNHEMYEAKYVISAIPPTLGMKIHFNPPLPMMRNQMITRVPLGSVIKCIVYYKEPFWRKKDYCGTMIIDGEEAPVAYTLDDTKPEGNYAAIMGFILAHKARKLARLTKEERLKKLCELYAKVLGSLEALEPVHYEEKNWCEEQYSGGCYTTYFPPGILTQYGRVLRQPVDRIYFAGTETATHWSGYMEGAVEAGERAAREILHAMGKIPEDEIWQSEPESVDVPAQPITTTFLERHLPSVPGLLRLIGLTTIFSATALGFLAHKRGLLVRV

[4] = biological target: Adenosine receptor A2a (Rattus norvegicus) (UniProt P30543); experiment: Displacement of [3H]MSX from A2A receptor in rat brain striatum membranes at 1 uM measured after 30 mins by liquid scintillation counting method relative to control; type: cell membranes
[5] = biological target: T6, Adenosine receptor A2b (Homo sapiens) (UniProt P29275); experiment: Displacement of [3H]PSB-603 from human A2B receptor expressed in CHO cell membrane at 1 uM relative to control; type: cell membranes
T6 sequence (whole entry): T4 sequence (P29275 whole entry)

Adenosine receptor A3 = biological target: T7, Adenosine receptor A3 (Homo sapiens, UniProt P0DMS8); experiment: Displacement of [3H]PSB-11 from human A3 receptor expressed in CHO cell membrane by liquid scintillation counting method relative to control; type: cell membranes
T7 sequence (P0DMS8 whole entry): T1 sequence (whole entry)

[6] = biological target: T5, Amine oxidase [flavin-containing] B; experiment: Inhibition of recombinant human MAO-B expressed in baculovirus infected BTI insect cells preincubated for 30 mins followed by addition of p-tyramine as substrate measured over 45 mins by Amplex Red MAO assay
[7] = biological target: T8, Amine oxidase [flavin-containing] A (Homo sapiens, UniProt P21397); experiment: Inhibition of recombinant human MAO-A expressed in baculovirus infected BTI insect cells at 10 uM preincubated for 30 mins followed by addition of p-tyramine as substrate measured over 45 mins by Amplex Red MAO assay relative to control; settings: 0.75 h
T8 sequence (P21397 whole entry): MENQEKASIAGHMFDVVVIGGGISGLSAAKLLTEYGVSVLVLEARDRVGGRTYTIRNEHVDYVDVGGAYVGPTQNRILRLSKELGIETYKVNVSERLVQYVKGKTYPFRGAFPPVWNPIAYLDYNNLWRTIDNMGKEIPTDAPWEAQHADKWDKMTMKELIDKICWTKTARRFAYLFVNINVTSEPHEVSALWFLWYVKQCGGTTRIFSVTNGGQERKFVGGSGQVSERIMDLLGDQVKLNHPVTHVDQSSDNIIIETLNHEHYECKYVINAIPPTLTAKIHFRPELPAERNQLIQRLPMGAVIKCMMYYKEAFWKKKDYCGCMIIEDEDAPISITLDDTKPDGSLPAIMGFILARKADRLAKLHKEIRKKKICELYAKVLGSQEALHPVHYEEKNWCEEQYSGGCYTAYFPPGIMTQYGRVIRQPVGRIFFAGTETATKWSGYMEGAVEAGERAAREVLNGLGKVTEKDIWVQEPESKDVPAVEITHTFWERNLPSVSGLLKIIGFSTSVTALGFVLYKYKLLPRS

[8] = biological target: T8, Amine oxidase [flavin-containing] A; experiment: Inhibition of recombinant human MAO-A expressed in baculovirus infected BTI insect cells preincubated for 30 mins followed by addition of p-tyramine as substrate measured over 45 mins by Amplex Red MAO assay

Adenosine receptor A2a, sequence (P30543 whole entry): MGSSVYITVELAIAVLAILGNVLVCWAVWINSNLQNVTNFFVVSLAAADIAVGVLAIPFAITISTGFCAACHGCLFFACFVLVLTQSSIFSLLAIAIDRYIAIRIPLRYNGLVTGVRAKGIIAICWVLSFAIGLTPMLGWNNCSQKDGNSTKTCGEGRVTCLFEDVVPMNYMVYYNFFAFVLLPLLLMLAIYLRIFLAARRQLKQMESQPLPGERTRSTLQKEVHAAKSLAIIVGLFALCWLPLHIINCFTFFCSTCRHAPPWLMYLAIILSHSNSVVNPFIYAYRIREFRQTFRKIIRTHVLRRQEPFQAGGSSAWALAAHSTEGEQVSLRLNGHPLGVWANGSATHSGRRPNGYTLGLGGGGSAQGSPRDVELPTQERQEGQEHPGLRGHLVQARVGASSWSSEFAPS
Adenosine receptor A2a (Rattus norvegicus), sequence (P30543 whole entry): as above

| Compound | Activity [1] | Activity [2] | Ki (Adenosine receptor A1) | Ki (Adenosine receptor A2b) | Ki (Adenosine receptor A2a) | inhibition at 10 µM [3] | Activity [4] | Activity [5] | Ki (Adenosine receptor A3) | IC50 [6] | inhibition at 10 µM [7] | IC50 [8] |
| --- | --- | --- | --- | --- | --- | --- | --- | --- | --- | --- | --- | --- |
| Cn1c(=O)c2c(nc3n2CCN(CCc2ccc(F)c(F)c2)C3)n(C)c1=O | 11% | 10% | > 1.5 µM | > 1 µM | > 1 µM | 60% | 19% | 12% | > 10 µM | – | – | – |
| Cn1c(=O)c2c(nc3n2CCN(CCCn2ccnc2)C3)n(C)c1=O | 11% | 13% | > 1.5 µM | > 1 µM | > 1 µM | 2% | 13% | 4% | > 10 µM | > 10 µM | – | – |
| Cn1c(=O)c2c(nc3n2CCN(Cc2cn(-c4ccc(Cl)cc4)nn2)C3)n(C)c1=O | 11% | 36% | > 1.5 µM | > 1 µM | > 1 µM | 12% | 26% | 27% | > 10 µM | > 10 µM | – | – |
| Cn1c(=O)c2c(nc3n2CCN(CCc2cccc(C(F)(F)F)c2)C3)n(C)c1=O | 29% | 6% | > 1.5 µM | > 1 µM | 2.58 µM | 63% | – | 12% | > 10 µM | 10 µM | – | – |
| Cn1c(=O)c2c(nc3n2CCN(c2ccc(F)cc2)C3)n(C)c1=O | 24% | 4% | > 1.5 µM | > 1 µM | 2.13 µM | – | – | 9% | > 10 µM | 2.23 µM | – | – |
| Cn1c(=O)c2c(nc3n2CCN([C@@H]2CCc4ccccc42)C3)n(C)c1=O | 38% | 28% | > 1.5 µM | > 1 µM | 5.08 µM | – | – | 8% | > 10 µM | 2.15 µM | – | – |
| COc1cccc(N2CCn3c(nc4c3c(=O)n(C)c(=O)n4C)C2)c1 | 32% | 16% | > 1.5 µM | > 1 µM | 1.01 µM | – | – | 21% | > 10 µM | 1.16 µM | 3% | > 10 µM |
| Cn1c(=O)c2c(nc3n2CCN(CCc2ccccc2)C3)n(C)c1=O | 43% | 9% | > 1.5 µM | > 1 µM | 9.61 µM | 39% | – | 11% | > 10 µM | > 10 µM | -12% | > 10 µM |
| Cn1c(=O)c2c(nc3n2CCN(c2cccc4ccccc24)C3)n(C)c1=O | 29% | 17% | > 1.5 µM | > 1 µM | 2.94 µM | – | – | 10% | > 10 µM | 0.828 µM | 16% | > 10 µM |
| CC(CN1CCn2c(nc3c2c(=O)n(C)c(=O)n3C)C1)c1ccccc1 (stereo not drawn) | 31% | 27% | > 1.5 µM | > 1 µM | 4.52 µM | 11% | – | 11% | > 10 µM | > 10 µM | 23% | > 10 µM |
| Cn1c(=O)c2c(nc3n2CCN(c2ccccc2)C3)n(C)c1=O | 32% | 12% | > 1.5 µM | > 1 µM | 3.83 µM | 61% | – | 8% | > 10 µM | – | -1% | > 10 µM |
| Cn1c(=O)c2c(nc3n2CCN(c2cccc(F)c2)C3)n(C)c1=O | 18% | 20% | > 1.5 µM | > 1 µM | 2.92 µM | – | – | 3% | > 10 µM | 1.5 µM | 8% | > 10 µM |

The remaining lines, values ahead:

| Activity [1] | Activity [2] | Ki (Adenosine receptor A1) | Ki (Adenosine receptor A2b) | Ki (Adenosine receptor A2a) | inhibition at 10 µM [3] | Activity [4] | Activity [5] | Ki (Adenosine receptor A3) | IC50 [6] | inhibition at 10 µM [7] | IC50 [8] | Compound |
| --- | --- | --- | --- | --- | --- | --- | --- | --- | --- | --- | --- | --- |
| – | 35% | > 1.5 µM | > 1 µM | 2.85 µM | – | – | 11% | 15 µM | 0.802 µM | 14% | > 10 µM | Cn1c(=O)c2c(nc3n2CCN(CCc2ccc(Cl)c(Cl)c2)C3)n(C)c1=O |
| 10% | 14% | > 1.5 µM | > 1 µM | 1.31 µM | 61% | – | 21% | > 10 µM | – | 13% | > 10 µM | Cn1c(=O)c2c(nc3n2CCN(CCc2cccc(Cl)c2)C3)n(C)c1=O |
| 36% | – | 1.25 µM | > 1 µM | 2.42 µM | 27% | – | 21% | > 10 µM | > 10 µM | 14% | > 10 µM | Cn1c(=O)c2c(nc3n2CCN(CCOc2ccc(Cl)c(Cl)c2)C3)n(C)c1=O |
| 43% | 32% | > 1.5 µM | > 1 µM | 2.73 µM | – | – | 13% | > 10 µM | 0.723 µM | 11% | > 10 µM | Cn1c(=O)c2c(nc3n2CCN(CCc2ccccc2Cl)C3)n(C)c1=O |
| 10% | 34% | > 1.5 µM | > 1 µM | 3.05 µM | – | – | 22% | > 10 µM | 0.932 µM | – | – | Cn1c(=O)c2c(nc3n2CCN(CCc2c(Cl)cccc2Cl)C3)n(C)c1=O |
